Measurements from US20250235543A1, “MODIFIED PROTEINS AND PROTEIN DEGRADERS” (Cullgen (Shanghai), Inc., priority 2021, published 2025).

Columns and labels:
[1] = system: cyclin D1, cyclin D2, cyclin D3, CDK4 and CDK6; test: Immunoblotting of cyclin D and CDK4/6 protein levels in BT-549 cells; assay type: cell-based; conditions: indicated concentrations, 16 hours
Description: (§1) Calu-1 (FIG. 2A) or BT-549 (FIG. 2B) cells were treated with CPD-002, CPD-004, or palbociclib at indicated concentrations for 16 hours.
(§2) Cultured cells were washed with cold PBS once and lysed in cold RIPA buffer supplemented with protease inhibitors and phosphatase inhibitors (Beyotime Biotechnology). The solutions were then incubated at 4° C. for 30 min with gentle agitation to fully lysed cells. Cell lysates were centrifuged at 13,000 rpm for 10 min at 4° C. and pellets were discarded. Total protein concentrations in the lysates were determined following BCA assays (Beyotime Biotechnology). Cell lysates were mixed with Laemmli loading buffer and heated at 99° C. for 5 min. Proteins were resolved on SDS-PAGE and visualized using Western ECL Substrate kits on a ChemiDoc MP Imaging system (Bio-Rad). Protein bands were quantitated using the Image Lab software provided by Bio-Rad.

DDB1 [2] = target: T1, DDB1 (Homo sapiens, UniProt Q16531, D705G/DEL396-460/DEL463-701/I704S/T703N); test: Surface plasmon resonance (SPR) binding of heterobifunctional compounds to DDB1; conditions: purified DDB1ΔBPB immobilized on CM5 chip, multi-cycle kinetic format, steady state model, read-out: binding affinities (Kd) to DDB1
T1 construct: His6 (N, cleaved yes); TEV protease cleavage site (N, cleaved yes); made in house; host or cells: SF9 insect cells, Bac-to-Bac baculovirus, pFastBacHTB vector
T1 sequence (Q16531 other isoform, or with tags, fused parts or gaps DEL396-460/DEL463-701/T703N/I704S/D705G): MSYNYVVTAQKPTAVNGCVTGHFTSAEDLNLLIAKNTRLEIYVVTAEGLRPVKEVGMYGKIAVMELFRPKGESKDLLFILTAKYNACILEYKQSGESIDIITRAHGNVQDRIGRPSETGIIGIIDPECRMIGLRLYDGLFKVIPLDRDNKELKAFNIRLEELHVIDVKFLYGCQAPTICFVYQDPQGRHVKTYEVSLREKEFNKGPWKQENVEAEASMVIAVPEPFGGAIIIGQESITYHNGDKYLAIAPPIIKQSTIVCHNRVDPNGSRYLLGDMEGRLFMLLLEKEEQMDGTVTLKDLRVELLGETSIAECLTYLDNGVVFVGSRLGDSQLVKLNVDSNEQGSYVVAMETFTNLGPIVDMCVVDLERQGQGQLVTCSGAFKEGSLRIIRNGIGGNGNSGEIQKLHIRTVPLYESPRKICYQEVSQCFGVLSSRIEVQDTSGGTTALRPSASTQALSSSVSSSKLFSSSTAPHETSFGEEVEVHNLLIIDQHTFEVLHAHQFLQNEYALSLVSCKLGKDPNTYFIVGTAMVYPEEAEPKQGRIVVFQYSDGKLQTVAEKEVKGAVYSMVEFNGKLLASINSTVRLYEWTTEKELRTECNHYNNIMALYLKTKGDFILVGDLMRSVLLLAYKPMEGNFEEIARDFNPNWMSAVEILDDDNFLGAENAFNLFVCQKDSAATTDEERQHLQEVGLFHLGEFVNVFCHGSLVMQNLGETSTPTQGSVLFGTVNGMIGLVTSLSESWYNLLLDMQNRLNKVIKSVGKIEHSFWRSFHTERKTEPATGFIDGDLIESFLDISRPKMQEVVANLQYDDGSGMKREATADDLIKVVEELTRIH
Description: To determine whether the addition of linkers and target binders to the DDB1 ligands affected the binding to DDB1 E3 ligase, the binding affinities of heterobifunctional compounds to DDB1 was evaluated using a surface plasmon resonance (SPR) assay. Purified DDB1ΔBPB proteins were immobilized on a CM5 sensor chip and a dose range of compound solutions were injected in multi-cycle kinetic format. Data was fit to steady state model and gave equivalent dissociation constants (Kd).

cyclin D1 = test: Cyclin D1 percentage degradation in Calu-1 cells (immunoblotting); assay type: cell-based; conditions: 200 nM, 16 hours
Procedure, shortened: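 Cells were rinsed once in cold PBS and lysed in cold RIPA buffer containing protease and phosphatase inhibitors, with gentle agitation at 4° C. for 30 min. Lysates were spun at 13,000 rpm for 10 min at 4° C., protein was measured by BCA, and samples were boiled in Laemmli buffer at 99° C. for 5 min before SDS-PAGE immunoblotting.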

[3] = system: cyclin D1, cyclin D2, cyclin D3, CDK4 and CDK6; test: Immunoblotting of cyclin D and CDK4/6 protein levels in Calu-1 cells; assay type: cell-based; conditions: for degradation potencies compared with corresponding active heterobifunctional compounds: dose range, negative control compounds
Description: as §1
Calu-1 cells were treated with CPD-031 at indicated concentrations for 16 hours.
Calu-1 cells were treated with CPD-002 or CPD-031 at 500 nM or 100 nM, respectively for indicated period of time.
Calu-1 cells were pre-treated with DMSO, 20 μM MG-132 (MG), 5 μM MLN4924 (MLN) or 1 μM TAK-243 (TAK) for 2 hours, and subsequently incubated with 500 nM CPD-002, 500 nM CPD-004, or 100 nM CPD-031 for another 4 h or 2 h prior to immunoblotting (FIG. 5A-5B).
Calu-1 cells were treated with a dose range of negative control compounds CPD-042 or CPD-049 for 16 hours (FIG. 6A-6B).
Calu-1 cells were treated with reference compounds CP-10 or BSJ-03-123 at indicated concentrations for 8 hours.
as §2

DDB1 [4] = target: T1, DDB1; test: SPR binding assay to immobilized DDB1ΔBPB; conditions: binding affinities to DDB1
Description: The binding affinities of heterobifunctional compounds to DDB1 were determined by SPR assay (FIG. 1A-1B). Purified DDB1ΔBPB proteins were immobilized on a CM5 sensor chip, and a dose range of compound solutions were injected in multi-cycle kinetic format. Data were fit to a steady state model to provide equivalent dissociation constants (Kd).
Human DDB1ΔBPB (UniProt: Q16531. BPB domain, aa 396 to 705, is replaced with a GNGNSG linker) coding sequences were cloned into pFastBacHTB vector and were expressed in SF9 cells using Bac-to-Bac baculovirus expression system (Thermo Fisher Scientific). The expression constructs include an N-terminal His6-tag to facilitate the purification, and a TEV protease cleavage site in between. DDB1ΔBPB proteins were obtained from supernatant of cell lysates and purified through sequential application of Ni affinity column (Ni-NTA column, Bio-Rad) and size-exclusion column (Superdex 200 16/600GL column, GE Healthcare) chromatography. Protein tags were cleaved off by TEV protease, and the resulting untagged proteins were further purified by Ni affinity column. Purified proteins were verified by immunoblotting, analytic SEC, and LC-MS.
SPR studies were performed on a Biacore X100 plus instrument (GE Healthcare). Immobilization of purified DDB1ΔBPB was carried out at 25° C. using a CM5 sensor chip. The surface was pre-equilibrated in HBS-EP running buffer (10 mM HEPES, pH7.4, 150 mM NaCl, 3 mM EDTA, 0.05% P20), before it was activated with EDC/NHS. DDB1ΔBPB proteins were immobilized by amine coupling to a density of 10,000-12,000 resonance units (RUs) on flow cell FC2, whereas flow cell FC1 was used as reference. Both protein immobilized and reference surfaces were deactivated with 1M ethanolamine. All interaction experiments were performed at 25° C. Test compounds were prepared and serially diluted in HBS-EP running buffer containing final 5% DMSO (6-point two-fold serial dilution, 100 μM-3.125 μM final concentration of compounds). Compound solutions were injected individually in multi-cycle kinetic format without regeneration (flow rate 30 μl/min, association time 120 s, dissociation time 120 s). Sensorgrams from reference surfaces and blank injections were subtracted from the raw data (double-referencing) and the data was solvent-corrected prior to analysis. All data were fit to steady state affinity model using Biacore Evaluation Software to provide equivalent dissociation constants (Kd).

CDK4 = target: T2, CDK4 (Homo sapiens, UniProt P11802); test: CDK4 percentage degradation in Calu-1 cells (immunoblotting); assay type: cell-based; conditions: Calu-1 cells, 200 nM, 16 hours; read-out: CDK4 Degradation (200 nM)
T2 construct: endogenous in cells; host or cells: Calu-1
T2 sequence (P11802 2-303 limits assumed): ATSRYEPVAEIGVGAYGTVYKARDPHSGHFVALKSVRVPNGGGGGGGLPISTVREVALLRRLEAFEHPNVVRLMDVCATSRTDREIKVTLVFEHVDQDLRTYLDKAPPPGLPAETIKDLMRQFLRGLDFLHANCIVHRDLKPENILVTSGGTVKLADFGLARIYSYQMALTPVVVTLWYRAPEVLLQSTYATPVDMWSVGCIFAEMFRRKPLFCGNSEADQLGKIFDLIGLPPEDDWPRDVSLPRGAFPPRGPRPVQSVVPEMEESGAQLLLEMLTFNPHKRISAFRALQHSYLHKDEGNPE
T2 sequence (P24385 whole entry partner): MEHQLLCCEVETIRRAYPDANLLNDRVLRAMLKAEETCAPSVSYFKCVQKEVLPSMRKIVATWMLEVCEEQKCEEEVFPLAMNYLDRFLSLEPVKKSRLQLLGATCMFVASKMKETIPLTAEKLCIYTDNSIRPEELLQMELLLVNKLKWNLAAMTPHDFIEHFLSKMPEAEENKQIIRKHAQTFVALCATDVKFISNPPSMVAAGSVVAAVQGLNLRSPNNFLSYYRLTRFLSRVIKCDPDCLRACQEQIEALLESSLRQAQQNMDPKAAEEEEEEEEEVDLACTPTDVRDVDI
T2 sequence (Q16531 2-1140 limits assumed, further chain): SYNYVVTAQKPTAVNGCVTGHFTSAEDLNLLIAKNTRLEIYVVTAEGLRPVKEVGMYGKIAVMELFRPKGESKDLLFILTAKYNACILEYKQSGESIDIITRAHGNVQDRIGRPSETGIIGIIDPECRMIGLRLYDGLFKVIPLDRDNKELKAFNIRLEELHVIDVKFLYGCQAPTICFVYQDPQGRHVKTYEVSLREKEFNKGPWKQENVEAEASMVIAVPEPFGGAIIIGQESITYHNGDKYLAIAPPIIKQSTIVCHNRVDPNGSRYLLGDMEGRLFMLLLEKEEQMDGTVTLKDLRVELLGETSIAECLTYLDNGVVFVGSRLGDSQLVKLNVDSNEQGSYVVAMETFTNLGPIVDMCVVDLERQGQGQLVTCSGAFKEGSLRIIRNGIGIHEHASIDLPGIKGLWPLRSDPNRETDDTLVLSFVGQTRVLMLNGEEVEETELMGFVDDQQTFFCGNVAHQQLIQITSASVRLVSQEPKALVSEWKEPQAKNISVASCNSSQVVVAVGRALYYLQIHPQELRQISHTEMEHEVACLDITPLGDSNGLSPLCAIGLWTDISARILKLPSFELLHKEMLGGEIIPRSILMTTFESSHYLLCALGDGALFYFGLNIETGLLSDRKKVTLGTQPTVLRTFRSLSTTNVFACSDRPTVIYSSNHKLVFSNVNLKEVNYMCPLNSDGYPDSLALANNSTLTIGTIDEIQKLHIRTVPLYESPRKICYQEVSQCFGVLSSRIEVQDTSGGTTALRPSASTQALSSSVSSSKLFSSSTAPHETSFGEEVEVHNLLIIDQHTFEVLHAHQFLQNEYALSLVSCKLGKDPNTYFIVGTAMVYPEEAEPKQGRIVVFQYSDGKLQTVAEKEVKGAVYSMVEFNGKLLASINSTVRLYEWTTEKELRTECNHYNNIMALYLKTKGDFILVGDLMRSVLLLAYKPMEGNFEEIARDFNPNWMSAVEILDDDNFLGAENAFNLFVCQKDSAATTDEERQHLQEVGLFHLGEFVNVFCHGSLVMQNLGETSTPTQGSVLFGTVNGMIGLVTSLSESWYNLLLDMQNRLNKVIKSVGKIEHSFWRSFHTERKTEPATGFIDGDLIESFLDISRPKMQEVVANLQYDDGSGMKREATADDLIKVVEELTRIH
Procedure, shortened: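 Cultured cells were rinsed once in cold PBS and lysed in cold RIPA buffer containing protease and phosphatase inhibitors, with gentle agitation at 4° C. for 30 min. Lysates were centrifuged at 13,000 rpm for 10 min at 4° C., and protein was quantified by BCA. Samples were then separated by SDS-PAGE, detected with ECL, and the CDK4 bands quantified in Image Lab.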

[5] = system: cyclin D1, cyclin D2, cyclin D3; test: Immunoblot of cyclin D protein levels in Calu-1 (and BT-549) cells; assay type: cell-based; conditions: 16 hours; for decrease of degradation potency versus corresponding active compound: Calu-1 cells, CPD-042 vs CPD-002, CPD-049 vs CPD-031
Description: Specific exemplary heterobifunctional compounds were characterized in Calu-1, BT-549 and other cells. Cells that express cyclin D1-3 and CDK4/6 proteins were treated with heterobifunctional compounds disclosed herein at indicated concentrations for 16 hours. Cells were collected, lysed and subject to immunoblotting using an antibody specific to cyclin D1, cyclin D2, cyclin D3, CDK4, CDK6 or phosphorylated R^b proteins. Tubulin or GAPDH was used as the loading control. DMSO treatment was used as the negative control.
In a time-course study, Calu-1 cells were treated with 500 nM CPD-002, or 100 nM CPD-031 for indicated period of time prior to immunoblotting (FIG. 4A-4B).
The heterobifunctional compound-mediated degradation was dependent on the ubiquitin-proteasome system and cullin E3 ligase. […] In addition, DDB1 E3 ligase was critical for the degrader-induced cyclin D downregulation. Depletion of DDB1 using CRISPR-Cas9 technology attenuated the cyclin D degradation induced by CPD-031 (FIG. 5C).
(§3) To verify that heterobifunctional compound-mediated degradation is dependent on the binding to CDK4-cyclin D complex, we designed three negative control compounds, CPD-042, CPD-049 and CPD-380, which are derived from CPD-002 CPD-031 and CPD-343, respectively. These three control compounds bear the same DDB1 ligand and linker as their corresponding active heterobifunctional compounds but with modified warheads to impair the binding of the control compounds to CDK4. […] However, the binding to CDK4 is not sufficient for cyclin D degradation. Two cereblon (CRBN)-recruiting reference heterobifunctional compounds, CP-10 (Su, J Med Chem, 2019; CAS No.: 2366268-80-4) and BSJ-03-123 (Brand, Cell Chem Biol, 2019; CAS No.: 2361493-16-3) were analyzed in Calu-1 cells.

[6] = system: Rb phosphorylation, cleaved caspase-3; test: Immunoblotting of downstream Rb phosphorylation and cleaved caspase-3 in Calu-1 or BT-549 cells; assay type: cell-based; conditions: 16 hours
Description: as §1, §2

Calu-1 cells = test: Anti-viability / anti-proliferation in Calu-1 cells; assay type: cell-based; conditions: CPD-042 vs CPD-002, CPD-049 vs CPD-031
Description: FIG. 6 show immunoblots of cyclin D1, cyclin D2, cyclin D3, and CDK4 proteins expressed by Calu-1 cells after treatment with a dose range of control compounds CPD-042 (A), or CPD-049 (B) for 16 hours, and anti-viability curves of Calu-1 cells in the presence of CPD-002 and CPD-042 (C), or CPD-031 and CPD-049 (D).
FIG. 11A-11B show immunoblots of cyclin D1, CDK4, and CDK6 proteins expressed by Calu-1 cells after treatment with a dose range of heterobifunctional reference compound CP-10, or BSJ-03-123 for 8 hours (FIG. 11A), and anti-viability curves of Calu-1 cells in the presence of CP-10, or BSJ-03-123 for 3 days (FIG. 11B).
as §3

Calu-1 = test: Cell viability assay, Calu-1; assay type: cell-based; conditions: Calu-1 cells, 96-well plates, serial dilution, 3 days
Description: Cells were treated with CDK4/6 inhibitors palbociclib, ribociclib, or abemaciclib, or heterobifunctional compounds CPD-002 or CPD-031 following a 9-point serial dilution for 3 days.
Cells were seeded at a density of 2,000-5,000 cells per well in 96-well assay plates and treated with test compounds following a 10-point serial dilution for 3-6 days. Cell viability was determined using the CellTiter-Lumi assay kit according to the manufacturer's instructions. The dose-response curves were determined and IC50 values were calculated using the GraphPad Prism software following a nonlinear regression (least squares fit) method. Data presented was mean±standard deviation (SD) unless otherwise indicated.

Compound	cyclin D1, cyclin D2, cyclin D3, CDK4 and CDK6 protein levels [1]	Kd (DDB1 [2])	CyclinD1 Degradation (200 nM) (cyclin D1)	cyclin D degradation after pretreatment with MG-132, MLN4924 or TAK-243 ([3]; 2 hours pre-treatment, then 500 nM CPD-002, 500 nM CPD-004 or 100 nM CPD-031 for 4 h or 2 h)	cyclin D1, cyclin D2, cyclin D3, CDK4 and CDK6 protein levels ([3]; indicated concentrations, 16 hours)	Kd (DDB1 [4])	inhibition at 0.2 µM (CDK4)	reduction of cyclin D1, cyclin D2, and cyclin D3 protein levels ([5]; immunoblot, Calu-1 / BT-549 cells, dose range)	downstream Rb phosphorylation and cleaved caspase-3 [6]	decrease of cellular anti-proliferation activity versus corresponding active compound (Calu-1 cells)	degradation potencies compared with corresponding active heterobifunctional compounds ([3]; 16 hours)	cell viability (cellular anti-proliferation activity) (Calu-1)	decrease of degradation potency versus corresponding active compound [5]
CC(=O)c1c(C)c2cnc(Nc3ccc(N4CCN(CC(=O)NCCOCCOCCOCCOCCOCCNc5ccc(C(=O)Nc6nccs6)c(C)c5)CC4)cn3)nc2n(C2CCCC2)c1=O [CPD-004, 4-((1-(4-(6-((6-Acetyl-8-cyclopentyl-5-methyl-7-oxo-7,8-dihydropyrido[2,3-d]pyrimidin-2-yl)amino)pyridin-3-yl)piperazin-1-yl)-2-oxo-6,9,12,15,18-pentaoxa-3-azaicosan-20-yl)amino)-2-methyl-N-(thiazol-2-yl)benzamide]	reduced cyclin D1, cyclin D2, cyclin D3, CDK4 and CDK6 protein levels in a concentration-dependent manner	9.4 µM	A (protein percentage degradation >=80%)	diminished the cyclin D degradation effect	reduced cyclin D1, cyclin D2, cyclin D3, CDK4 and CDK6 protein levels in a concentration-dependent manner	< 20 µM	30 to 50%	particularly effective	inhibited downstream Rb phosphorylation and induced cleaved caspase-3 in a concentration-dependent manner				
CC(=O)c1c(C)c2cnc(N(C)c3ccc(N4CCN(CC(=O)NCCOCCOCCOCCOCCOCCNc5ccc(C(=O)Nc6ncc(C)s6)c(C)c5)CC4)cn3)nc2n(C2CCCC2)c1=O [CPD-042, 4-((1-(4-(6-((6-Acetyl-8-cyclopentyl-5-methyl-7-oxo-7,8-dihydropyrido[2,3-d]pyrimidin-2-yl)(methyl)amino)pyridin-3-yl)piperazin-1-yl)-2-oxo-6,9,12,15,18-pentaoxa-3-azaicosan-20-yl)amino)-2-methyl-N-(5-methylthiazol-2-yl)benzamide]			D (protein percentage degradation <30%)			< 20 µM	< 30%			> 20 fold	much weaker degradation potencies	much weaker cellular anti-proliferation activities	> 10 fold
CC(=O)c1c(C)c2cnc(N(C)c3ccc(N4CCN(CC(=O)NCCOCCOCCOCCOCCOCCNc5ccc(C(=O)Nc6nc(C)c(C)s6)c(C)c5)CC4)cn3)nc2n(C2CCCC2)c1=O [CPD-049, 4-((1-(4-(6-((6-Acetyl-8-cyclopentyl-5-methyl-7-oxo-7,8-dihydropyrido[2,3-d]pyrimidin-2-yl)(methyl)amino)pyridin-3-yl)piperazin-1-yl)-2-oxo-6,9,12,15,18-pentaoxa-3-azaicosan-20-yl)amino)-N-(4,5-dimethylthiazol-2-yl)-2-methylbenzamide]			D (protein percentage degradation <30%)			20 to 50 µM	< 30%			> 100 fold	much weaker degradation potencies	much weaker cellular anti-proliferation activities	> 100 fold
